Source: article PMC5564600 (Oncotarget, 2017)

What was measured:
Assay in all cases: biochemical
Format in all cases: binding
panel of 442 kinases [1] = molecular target: T1, panel of 442 kinases (Homo sapiens, UniProt O95819); details: kinase MAP4K4; for remaining activity at 1 µM: read-out: % of control at 1 µM
T1 construct: purchased Ambit Biosciences (scanMAXX KINOMEscan)

panel of 442 kinases [2] = molecular target: T2, panel of 442 kinases (Homo sapiens, UniProt P51817); details: kinase PRKX; for remaining activity at 1 µM: read-out: PRKX (% of control at 1 µM)
T2 construct: purchased Ambit Biosciences (scanMAXX KINOMEscan)
T2 sequence (P51817 1-358): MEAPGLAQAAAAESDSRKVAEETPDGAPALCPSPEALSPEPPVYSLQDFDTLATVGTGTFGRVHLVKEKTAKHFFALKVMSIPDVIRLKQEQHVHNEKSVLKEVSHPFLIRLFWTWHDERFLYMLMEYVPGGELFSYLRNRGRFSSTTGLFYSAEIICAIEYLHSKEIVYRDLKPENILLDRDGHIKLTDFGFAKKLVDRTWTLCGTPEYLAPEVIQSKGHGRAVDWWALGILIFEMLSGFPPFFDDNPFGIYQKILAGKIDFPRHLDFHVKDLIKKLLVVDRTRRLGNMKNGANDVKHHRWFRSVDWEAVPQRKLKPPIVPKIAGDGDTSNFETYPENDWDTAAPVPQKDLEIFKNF

panel of 442 kinases [3] = molecular target: T3, panel of 442 kinases (Homo sapiens, UniProt Q05397); details: FAK; for remaining activity at 1 µM: read-out: % of control at 1 µM
T3 construct: purchased Ambit Biosciences (scanMAXX KINOMEscan)
T3 sequence (Q05397 whole entry): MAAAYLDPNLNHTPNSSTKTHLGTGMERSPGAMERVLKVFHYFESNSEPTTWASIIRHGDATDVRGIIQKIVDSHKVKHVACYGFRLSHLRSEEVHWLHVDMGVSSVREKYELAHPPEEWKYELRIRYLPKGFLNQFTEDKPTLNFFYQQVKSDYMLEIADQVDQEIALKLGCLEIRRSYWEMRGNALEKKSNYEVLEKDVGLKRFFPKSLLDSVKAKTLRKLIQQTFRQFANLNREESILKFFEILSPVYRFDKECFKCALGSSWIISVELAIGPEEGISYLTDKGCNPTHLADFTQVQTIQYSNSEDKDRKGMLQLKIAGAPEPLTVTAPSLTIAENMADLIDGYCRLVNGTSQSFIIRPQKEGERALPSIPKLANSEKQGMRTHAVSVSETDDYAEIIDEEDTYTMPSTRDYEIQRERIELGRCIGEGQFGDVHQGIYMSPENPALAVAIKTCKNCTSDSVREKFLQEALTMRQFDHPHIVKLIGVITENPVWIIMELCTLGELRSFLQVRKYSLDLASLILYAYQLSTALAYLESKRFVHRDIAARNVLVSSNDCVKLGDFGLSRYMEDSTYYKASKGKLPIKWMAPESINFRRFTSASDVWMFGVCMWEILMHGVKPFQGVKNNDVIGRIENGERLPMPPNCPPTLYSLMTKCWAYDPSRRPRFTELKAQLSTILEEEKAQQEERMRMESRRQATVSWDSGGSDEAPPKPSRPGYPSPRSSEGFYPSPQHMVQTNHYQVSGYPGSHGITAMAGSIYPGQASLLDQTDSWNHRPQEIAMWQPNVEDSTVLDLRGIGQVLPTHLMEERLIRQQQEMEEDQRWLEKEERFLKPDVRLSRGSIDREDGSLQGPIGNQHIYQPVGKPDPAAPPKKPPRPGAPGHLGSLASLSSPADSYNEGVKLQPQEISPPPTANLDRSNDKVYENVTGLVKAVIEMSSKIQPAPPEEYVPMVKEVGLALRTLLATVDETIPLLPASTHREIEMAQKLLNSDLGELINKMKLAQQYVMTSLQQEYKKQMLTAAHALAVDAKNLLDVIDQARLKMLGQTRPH

panel of 442 kinases [4] = molecular target: T4, panel of 442 kinases (Homo sapiens, UniProt Q12852); details: DLK; for remaining activity at 1 µM: read-out: % of control at 1 µM
T4 construct: purchased Ambit Biosciences (scanMAXX KINOMEscan)
T4 sequence (Q12852 1-859): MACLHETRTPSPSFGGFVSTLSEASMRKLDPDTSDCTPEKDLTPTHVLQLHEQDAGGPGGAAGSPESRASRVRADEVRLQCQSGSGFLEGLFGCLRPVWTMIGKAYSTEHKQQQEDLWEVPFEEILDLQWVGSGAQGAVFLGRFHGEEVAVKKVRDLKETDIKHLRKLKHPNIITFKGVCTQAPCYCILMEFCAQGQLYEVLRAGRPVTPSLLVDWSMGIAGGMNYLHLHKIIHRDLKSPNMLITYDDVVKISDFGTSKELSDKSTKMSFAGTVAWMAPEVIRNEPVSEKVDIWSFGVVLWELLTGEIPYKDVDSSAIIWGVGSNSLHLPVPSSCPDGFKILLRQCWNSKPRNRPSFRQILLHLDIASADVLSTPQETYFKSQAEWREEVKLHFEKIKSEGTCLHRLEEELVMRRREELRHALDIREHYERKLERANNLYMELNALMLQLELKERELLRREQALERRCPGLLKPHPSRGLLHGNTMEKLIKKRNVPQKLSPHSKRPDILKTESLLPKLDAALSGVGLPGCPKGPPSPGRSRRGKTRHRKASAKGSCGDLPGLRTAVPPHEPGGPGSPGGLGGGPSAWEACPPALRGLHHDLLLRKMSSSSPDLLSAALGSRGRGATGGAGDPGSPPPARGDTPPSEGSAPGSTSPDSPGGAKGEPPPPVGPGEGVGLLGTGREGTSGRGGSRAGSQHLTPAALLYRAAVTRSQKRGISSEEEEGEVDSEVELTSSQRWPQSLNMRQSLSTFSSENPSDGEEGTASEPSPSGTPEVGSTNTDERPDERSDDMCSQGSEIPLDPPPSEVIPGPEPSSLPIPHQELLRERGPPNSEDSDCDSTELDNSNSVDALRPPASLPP

panel of 442 kinases [5] = molecular target: T5, panel of 442 kinases (Homo sapiens, UniProt Q16539); details: kinase p38-alpha; for remaining activity at 1 µM: read-out: % of control at 1 µM
T5 construct: purchased Ambit Biosciences (scanMAXX KINOMEscan)
T5 sequence (Q16539 whole entry): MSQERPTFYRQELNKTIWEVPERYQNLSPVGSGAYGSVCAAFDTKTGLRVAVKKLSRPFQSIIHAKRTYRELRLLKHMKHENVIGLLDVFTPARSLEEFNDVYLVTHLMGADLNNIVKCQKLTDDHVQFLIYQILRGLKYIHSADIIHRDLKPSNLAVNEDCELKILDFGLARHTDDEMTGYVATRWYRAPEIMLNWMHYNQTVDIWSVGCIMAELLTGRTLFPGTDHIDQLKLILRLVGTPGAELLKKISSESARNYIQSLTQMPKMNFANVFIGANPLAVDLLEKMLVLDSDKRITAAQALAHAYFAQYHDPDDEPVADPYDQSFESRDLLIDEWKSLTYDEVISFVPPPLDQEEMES

panel of 442 kinases [6] = molecular target: T6, panel of 442 kinases (Homo sapiens, UniProt Q8NEV4); details: kinase MYO3A; for remaining activity at 1 µM: read-out: % of control at 1 µM
T6 construct: purchased Ambit Biosciences (scanMAXX KINOMEscan)
T6 sequence (Q8NEV4 whole entry): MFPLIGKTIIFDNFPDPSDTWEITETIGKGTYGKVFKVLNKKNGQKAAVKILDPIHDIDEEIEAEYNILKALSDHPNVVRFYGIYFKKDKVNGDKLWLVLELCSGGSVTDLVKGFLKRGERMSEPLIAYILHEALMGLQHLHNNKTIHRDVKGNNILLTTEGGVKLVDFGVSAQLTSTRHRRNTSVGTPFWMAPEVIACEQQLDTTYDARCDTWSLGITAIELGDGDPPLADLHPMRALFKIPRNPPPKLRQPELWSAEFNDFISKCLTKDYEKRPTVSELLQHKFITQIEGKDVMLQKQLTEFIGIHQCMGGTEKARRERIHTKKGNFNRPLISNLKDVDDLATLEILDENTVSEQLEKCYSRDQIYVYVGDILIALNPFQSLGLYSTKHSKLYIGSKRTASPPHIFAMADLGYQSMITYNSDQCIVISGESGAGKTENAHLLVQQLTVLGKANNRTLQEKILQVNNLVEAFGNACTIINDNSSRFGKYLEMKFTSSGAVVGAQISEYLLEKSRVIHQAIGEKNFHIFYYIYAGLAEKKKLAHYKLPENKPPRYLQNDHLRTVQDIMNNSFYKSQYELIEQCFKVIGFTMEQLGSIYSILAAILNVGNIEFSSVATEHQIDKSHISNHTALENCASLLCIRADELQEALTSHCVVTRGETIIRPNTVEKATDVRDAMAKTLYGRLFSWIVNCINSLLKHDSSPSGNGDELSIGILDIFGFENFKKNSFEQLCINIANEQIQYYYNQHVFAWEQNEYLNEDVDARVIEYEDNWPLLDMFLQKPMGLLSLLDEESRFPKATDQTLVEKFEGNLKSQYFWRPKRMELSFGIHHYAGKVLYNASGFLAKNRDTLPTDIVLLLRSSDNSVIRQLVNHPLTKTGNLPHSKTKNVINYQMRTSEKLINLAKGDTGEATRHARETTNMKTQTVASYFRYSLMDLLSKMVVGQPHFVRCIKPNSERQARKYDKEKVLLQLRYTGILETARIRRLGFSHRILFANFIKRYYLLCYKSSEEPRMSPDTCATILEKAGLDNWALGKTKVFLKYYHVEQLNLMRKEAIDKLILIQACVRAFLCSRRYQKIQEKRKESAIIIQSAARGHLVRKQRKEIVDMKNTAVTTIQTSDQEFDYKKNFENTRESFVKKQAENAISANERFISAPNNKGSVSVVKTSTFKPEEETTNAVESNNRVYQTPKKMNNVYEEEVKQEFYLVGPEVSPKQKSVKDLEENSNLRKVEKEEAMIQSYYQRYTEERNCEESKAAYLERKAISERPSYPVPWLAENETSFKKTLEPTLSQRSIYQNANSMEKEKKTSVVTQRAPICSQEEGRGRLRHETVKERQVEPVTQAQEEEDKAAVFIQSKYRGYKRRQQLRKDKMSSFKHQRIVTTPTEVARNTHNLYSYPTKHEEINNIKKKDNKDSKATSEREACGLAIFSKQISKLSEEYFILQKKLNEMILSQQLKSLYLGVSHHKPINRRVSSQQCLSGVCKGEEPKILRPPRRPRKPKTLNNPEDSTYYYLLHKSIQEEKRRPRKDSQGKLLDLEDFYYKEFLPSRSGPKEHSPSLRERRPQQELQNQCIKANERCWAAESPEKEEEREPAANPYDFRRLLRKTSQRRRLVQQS

panel of 442 kinases [7] = molecular target: T7, panel of 442 kinases (Homo sapiens, UniProt Q8NI60); details: ADCK3; for remaining activity at 1 µM: read-out: % of control at 1 µM
T7 construct: purchased Ambit Biosciences (scanMAXX KINOMEscan)
T7 sequence (Q8NI60 163-647): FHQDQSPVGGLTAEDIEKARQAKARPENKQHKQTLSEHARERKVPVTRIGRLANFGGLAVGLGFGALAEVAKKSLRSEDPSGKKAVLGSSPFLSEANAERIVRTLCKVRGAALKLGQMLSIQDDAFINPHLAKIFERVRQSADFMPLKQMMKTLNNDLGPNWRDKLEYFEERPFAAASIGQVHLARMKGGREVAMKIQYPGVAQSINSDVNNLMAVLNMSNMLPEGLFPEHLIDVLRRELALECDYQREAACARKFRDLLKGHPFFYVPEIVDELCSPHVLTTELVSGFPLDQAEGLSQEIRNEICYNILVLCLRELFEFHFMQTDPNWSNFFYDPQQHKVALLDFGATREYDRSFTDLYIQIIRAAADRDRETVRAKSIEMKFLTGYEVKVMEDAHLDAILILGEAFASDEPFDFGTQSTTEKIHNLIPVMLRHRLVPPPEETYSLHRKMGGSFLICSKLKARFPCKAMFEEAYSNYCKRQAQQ

panel of 442 kinases [8] = molecular target: T8, panel of 442 kinases (Homo sapiens, UniProt Q8TD19); details: kinase NEK9; for remaining activity at 1 µM: read-out: % of control at 1 µM
T8 construct: purchased Ambit Biosciences (scanMAXX KINOMEscan)
T8 sequence (Q8TD19 1-979): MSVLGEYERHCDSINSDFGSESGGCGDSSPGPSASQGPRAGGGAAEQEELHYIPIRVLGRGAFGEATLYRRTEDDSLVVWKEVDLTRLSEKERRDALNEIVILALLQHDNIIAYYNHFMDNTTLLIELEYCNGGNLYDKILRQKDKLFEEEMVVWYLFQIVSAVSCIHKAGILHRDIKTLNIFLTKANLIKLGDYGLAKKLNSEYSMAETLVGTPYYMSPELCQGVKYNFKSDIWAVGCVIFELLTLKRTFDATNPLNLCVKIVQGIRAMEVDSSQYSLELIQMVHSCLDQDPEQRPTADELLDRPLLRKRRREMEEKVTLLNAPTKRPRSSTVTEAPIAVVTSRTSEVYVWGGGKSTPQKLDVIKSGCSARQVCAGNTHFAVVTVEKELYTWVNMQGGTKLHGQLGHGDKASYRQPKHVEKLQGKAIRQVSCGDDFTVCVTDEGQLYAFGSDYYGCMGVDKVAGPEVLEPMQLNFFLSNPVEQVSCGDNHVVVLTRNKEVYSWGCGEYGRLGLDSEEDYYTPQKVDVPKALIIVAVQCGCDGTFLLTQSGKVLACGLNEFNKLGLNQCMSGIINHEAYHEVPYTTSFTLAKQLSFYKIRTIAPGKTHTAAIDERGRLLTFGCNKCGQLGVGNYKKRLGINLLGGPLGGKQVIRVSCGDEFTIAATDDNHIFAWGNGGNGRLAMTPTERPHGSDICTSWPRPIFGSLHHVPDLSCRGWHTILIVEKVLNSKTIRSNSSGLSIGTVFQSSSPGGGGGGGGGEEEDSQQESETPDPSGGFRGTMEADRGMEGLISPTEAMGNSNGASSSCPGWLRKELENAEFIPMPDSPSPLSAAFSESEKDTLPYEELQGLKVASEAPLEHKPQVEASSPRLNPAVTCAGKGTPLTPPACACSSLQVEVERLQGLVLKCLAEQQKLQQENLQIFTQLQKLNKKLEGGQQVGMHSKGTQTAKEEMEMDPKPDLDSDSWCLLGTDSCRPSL

panel of 442 kinases [9] = molecular target: T9, panel of 442 kinases (Homo sapiens, UniProt Q9H422); details: kinase HIPK3; for remaining activity at 1 µM: read-out: % of control at 1 µM
T9 construct: purchased Ambit Biosciences (scanMAXX KINOMEscan)
T9 sequence (Q9H422 whole entry): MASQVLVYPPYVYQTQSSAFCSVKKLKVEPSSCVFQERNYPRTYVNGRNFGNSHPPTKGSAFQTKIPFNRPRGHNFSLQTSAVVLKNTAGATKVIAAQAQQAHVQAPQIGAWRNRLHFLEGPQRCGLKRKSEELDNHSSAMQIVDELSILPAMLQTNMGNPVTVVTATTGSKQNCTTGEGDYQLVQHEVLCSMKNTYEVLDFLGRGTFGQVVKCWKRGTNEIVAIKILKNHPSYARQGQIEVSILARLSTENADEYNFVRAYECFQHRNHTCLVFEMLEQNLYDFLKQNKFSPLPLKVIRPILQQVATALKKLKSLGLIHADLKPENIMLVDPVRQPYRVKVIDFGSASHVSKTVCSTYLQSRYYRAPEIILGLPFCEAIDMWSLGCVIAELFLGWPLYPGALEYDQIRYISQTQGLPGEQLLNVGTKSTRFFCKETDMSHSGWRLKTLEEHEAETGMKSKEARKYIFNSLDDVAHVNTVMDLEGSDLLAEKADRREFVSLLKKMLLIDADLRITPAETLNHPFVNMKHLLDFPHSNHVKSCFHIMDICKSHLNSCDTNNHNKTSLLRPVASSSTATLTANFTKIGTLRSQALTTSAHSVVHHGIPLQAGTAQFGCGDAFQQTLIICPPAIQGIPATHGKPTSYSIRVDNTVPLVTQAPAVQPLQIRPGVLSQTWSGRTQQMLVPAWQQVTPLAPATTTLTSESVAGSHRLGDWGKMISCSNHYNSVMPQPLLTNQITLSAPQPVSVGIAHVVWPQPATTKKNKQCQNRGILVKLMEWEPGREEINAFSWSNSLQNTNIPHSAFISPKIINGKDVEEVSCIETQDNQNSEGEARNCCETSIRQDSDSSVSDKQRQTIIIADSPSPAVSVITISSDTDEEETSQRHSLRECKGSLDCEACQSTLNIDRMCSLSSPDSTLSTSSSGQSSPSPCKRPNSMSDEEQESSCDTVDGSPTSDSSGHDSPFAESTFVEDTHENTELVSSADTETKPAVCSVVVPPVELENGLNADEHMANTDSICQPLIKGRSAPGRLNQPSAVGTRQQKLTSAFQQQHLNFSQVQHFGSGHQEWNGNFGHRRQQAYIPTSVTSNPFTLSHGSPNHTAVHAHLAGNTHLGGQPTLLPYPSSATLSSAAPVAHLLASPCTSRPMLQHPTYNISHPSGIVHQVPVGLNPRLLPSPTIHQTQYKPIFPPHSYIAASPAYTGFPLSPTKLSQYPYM

panel of 442 kinases [10] = molecular target: T10, panel of 442 kinases (Homo sapiens, UniProt Q9Y6E0); details: kinase MST3; for remaining activity at 1 µM: read-out: % of control at 1 µM
T10 construct: purchased Ambit Biosciences (scanMAXX KINOMEscan)

[11] = 10 µM, read-out: % of control at 10 µM

Nc1cc(C(F)(F)F)c(-c2cc(N3CCOCC3)nc(N3CCOCC3)n2)cn1 [Buparlisib]
remaining activity at 1 µM (panel of 442 kinases [1]): 100% | remaining activity at 10 µM (panel of 442 kinases [1]; [11]): 100% | remaining activity at 1 µM (panel of 442 kinases [2]): 100% | remaining activity at 10 µM (panel of 442 kinases [2]; 10 µM, read-out: PRKX (% of control at 10 µM)): 100% | remaining activity at 1 µM (panel of 442 kinases [3]): 100% | remaining activity at 10 µM (panel of 442 kinases [3]; [11]): 100% | remaining activity at 1 µM (panel of 442 kinases [4]): 94% | remaining activity at 10 µM (panel of 442 kinases [4]; [11]): 100% | remaining activity at 1 µM (panel of 442 kinases [5]): 87% | remaining activity at 10 µM (panel of 442 kinases [5]; [11]): 100% | remaining activity at 1 µM (panel of 442 kinases [6]): 90% | remaining activity at 10 µM (panel of 442 kinases [6]; [11]): 100% | remaining activity at 1 µM (panel of 442 kinases [7]): 100% | remaining activity at 10 µM (panel of 442 kinases [7]; [11]): 89% | remaining activity at 1 µM (panel of 442 kinases [8]): 94% | remaining activity at 10 µM (panel of 442 kinases [8]; [11]): 100% | remaining activity at 1 µM (panel of 442 kinases [9]): 92% | remaining activity at 10 µM (panel of 442 kinases [9]; [11]): 98% | remaining activity at 1 µM (panel of 442 kinases [10]): 100% | remaining activity at 10 µM (panel of 442 kinases [10]; [11]): 100%

Cn1c(=O)n(-c2ccc(C(C)(C)C#N)cc2)c2c3cc(-c4cnc5ccccc5c4)ccc3ncc21 [Dactolisib, 2-methyl-2-[4-(3-methyl-2-oxo-8-quinolin-3-yl-2,3-dihydroimidazo[4,5-c]quinolin-1-yl)-phenyl] propionitrile]
remaining activity at 1 µM (panel of 442 kinases [1]): 73% | remaining activity at 1 µM (panel of 442 kinases [2]): 77% | remaining activity at 1 µM (panel of 442 kinases [3]): 90% | remaining activity at 1 µM (panel of 442 kinases [4]): 100% | remaining activity at 1 µM (panel of 442 kinases [5]): 87% | remaining activity at 1 µM (panel of 442 kinases [6]): 88% | remaining activity at 1 µM (panel of 442 kinases [7]): 82% | remaining activity at 1 µM (panel of 442 kinases [8]): 96% | remaining activity at 1 µM (panel of 442 kinases [9]): 94% | remaining activity at 1 µM (panel of 442 kinases [10]): 82%

COc1ncc(-c2ccc3nccc(-c4ccnnc4)c3c2)cc1NS(=O)(=O)c1ccc(F)cc1F [Omipalisib]
remaining activity at 1 µM (panel of 442 kinases [1]): 100% | remaining activity at 1 µM (panel of 442 kinases [2]): 100% | remaining activity at 1 µM (panel of 442 kinases [3]): 94% | remaining activity at 1 µM (panel of 442 kinases [4]): 63% | remaining activity at 1 µM (panel of 442 kinases [5]): 97% | remaining activity at 1 µM (panel of 442 kinases [6]): 100% | remaining activity at 1 µM (panel of 442 kinases [7]): 87% | remaining activity at 1 µM (panel of 442 kinases [8]): 100% | remaining activity at 1 µM (panel of 442 kinases [9]): 88% | remaining activity at 1 µM (panel of 442 kinases [10]): 100%

FC(F)c1nc2ccccc2n1-c1nc(N2CCOCC2)nc(N2CCOCC2)n1 [ZSTK474, 2-(difluoromethyl)-1-[4,6-di(4-morpholinyl)-1,3,5-triazin-2-yl]-1H-benzimidazole]
remaining activity at 1 µM (panel of 442 kinases [1]): 93% | remaining activity at 1 µM (panel of 442 kinases [2]): 100% | remaining activity at 1 µM (panel of 442 kinases [3]): 90% | remaining activity at 1 µM (panel of 442 kinases [4]): 100% | remaining activity at 1 µM (panel of 442 kinases [5]): 100% | remaining activity at 1 µM (panel of 442 kinases [6]): 99% | remaining activity at 1 µM (panel of 442 kinases [7]): 82% | remaining activity at 1 µM (panel of 442 kinases [8]): 84% | remaining activity at 1 µM (panel of 442 kinases [9]): 89% | remaining activity at 1 µM (panel of 442 kinases [10]): 99%
